Reference: the NIST ThermoML archive (doi:10.1021/acs.jced.8b00132)
Where “and” joins values, the source holds several entries; their conditions need not be identical. Equal entries are not always repeated. Numbers after ± are expanded uncertainties.

Settings: transient hot wire

O=C(C(F)(F)C(F)(F)F)C(F)(C(F)(F)F)C(F)(F)F [dodecafluoro-2-methylpentan-3-one]
thermal conductivity (331.38 K, 45565 kPa, Liquid): 0.06924 ± 0.0014 W/m/K
thermal conductivity (331.38 K, 45571 kPa, Liquid): 0.06916 ± 0.0014 W/m/K
thermal conductivity (331.39 K, 36560 kPa, Liquid): 0.06692 ± 0.0014 W/m/K
thermal conductivity (331.4 K, 36561 kPa, Liquid): 0.0672 ± 0.0014 W/m/K
thermal conductivity (331.51 K, 102 kPa, Gas): 0.01402 ± 0.00088 W/m/K
thermal conductivity (331.54 K, 107 kPa, Gas): 0.01383 ± 0.00086 W/m/K
thermal conductivity (331.55 K, 3950 kPa, Liquid): 0.05388 ± 0.0011 W/m/K
thermal conductivity (331.55 K, 3951 kPa, Liquid): 0.05379 ± 0.0011 W/m/K
thermal conductivity (331.56 K, 72 kPa, Gas): 0.01361 ± 0.00087 W/m/K
thermal conductivity (331.58 K, 74 kPa, Gas): 0.01363 ± 0.00087 W/m/K
thermal conductivity (331.64 K, 28068 kPa, Liquid): 0.06457 ± 0.0013 W/m/K
thermal conductivity (331.64 K, 28075 kPa, Liquid): 0.06383 ± 0.0013 W/m/K
thermal conductivity (331.67 K, 20446 kPa, Liquid): 0.06141 ± 0.0013 W/m/K
thermal conductivity (331.67 K, 20447 kPa, Liquid): 0.06118 ± 0.0013 W/m/K
thermal conductivity (331.7 K, 14109 kPa, Liquid): 0.0585 ± 0.0012 W/m/K
thermal conductivity (331.71 K, 14116 kPa, Liquid): 0.05838 ± 0.0012 W/m/K
thermal conductivity (331.75 K, 8577 kPa, Liquid): 0.05613 ± 0.0012 W/m/K
thermal conductivity (331.75 K, 69214 kPa, Liquid): 0.07577 ± 0.0016 W/m/K
thermal conductivity (331.76 K, 8578 kPa, Liquid): 0.0562 ± 0.0012 W/m/K
thermal conductivity (331.76 K, 69231 kPa, Liquid): 0.07536 ± 0.0015 W/m/K
thermal conductivity (331.77 K, 57729 kPa, Liquid): 0.0724 ± 0.0015 W/m/K
thermal conductivity (331.77 K, 57733 kPa, Liquid): 0.07259 ± 0.0015 W/m/K
thermal conductivity (331.79 K, 239 kPa, Liquid): 0.05138 ± 0.0011 W/m/K
thermal conductivity (331.79 K, 45573 kPa, Liquid): 0.06907 ± 0.0014 W/m/K
thermal conductivity (331.8 K, 242 kPa, Liquid): 0.05139 ± 0.0011 W/m/K
thermal conductivity (331.8 K, 45574 kPa, Liquid): 0.06925 ± 0.0014 W/m/K
thermal conductivity (331.81 K, 102 kPa, Gas): 0.01364 ± 0.00085 W/m/K
thermal conductivity (331.83 K, 106 kPa, Gas): 0.01386 ± 0.00086 W/m/K
thermal conductivity (331.83 K, 36555 kPa, Liquid): 0.06649 ± 0.0014 W/m/K
thermal conductivity (331.83 K, 36558 kPa, Liquid): 0.06686 ± 0.0014 W/m/K
thermal conductivity (331.84 K, 107 kPa, Liquid): 0.05166 ± 0.0011 W/m/K and 0.05159 ± 0.0011 W/m/K
thermal conductivity (331.86 K, 71 kPa, Gas): 0.01366 ± 0.00085 W/m/K
thermal conductivity (331.89 K, 74 kPa, Gas): 0.01368 ± 0.00085 W/m/K
thermal conductivity (332.07 K, 3947 kPa, Liquid): 0.05394 ± 0.0011 W/m/K
thermal conductivity (332.08 K, 3946 kPa, Liquid): 0.05395 ± 0.0011 W/m/K
thermal conductivity (332.12 K, 28065 kPa, Liquid): 0.06395 ± 0.0013 W/m/K
thermal conductivity (332.12 K, 28069 kPa, Liquid): 0.06418 ± 0.0013 W/m/K
thermal conductivity (332.14 K, 107 kPa, Gas): 0.01388 ± 0.00086 W/m/K
thermal conductivity (332.18 K, 20442 kPa, Liquid): 0.0612 ± 0.0013 W/m/K and 0.06122 ± 0.0013 W/m/K
thermal conductivity (332.19 K, 71 kPa, Gas): 0.0138 ± 0.00086 W/m/K
thermal conductivity (332.19 K, 69215 kPa, Liquid): 0.07588 ± 0.0016 W/m/K
thermal conductivity (332.19 K, 69218 kPa, Liquid): 0.07551 ± 0.0015 W/m/K
thermal conductivity (332.22 K, 57721 kPa, Liquid): 0.07263 ± 0.0015 W/m/K
thermal conductivity (332.22 K, 57724 kPa, Liquid): 0.07259 ± 0.0015 W/m/K
thermal conductivity (332.23 K, 74 kPa, Gas): 0.01373 ± 0.00085 W/m/K
thermal conductivity (332.23 K, 14110 kPa, Liquid): 0.05828 ± 0.0012 W/m/K
thermal conductivity (332.23 K, 14111 kPa, Liquid): 0.05807 ± 0.0012 W/m/K
thermal conductivity (332.27 K, 45566 kPa, Liquid): 0.06911 ± 0.0014 W/m/K
thermal conductivity (332.28 K, 45563 kPa, Liquid): 0.06904 ± 0.0014 W/m/K
thermal conductivity (332.3 K, 8573 kPa, Liquid): 0.0558 ± 0.0012 W/m/K
thermal conductivity (332.3 K, 8574 kPa, Liquid): 0.05582 ± 0.0012 W/m/K
thermal conductivity (332.32 K, 36553 kPa, Liquid): 0.06631 ± 0.0014 W/m/K
thermal conductivity (332.33 K, 36552 kPa, Liquid): 0.06642 ± 0.0014 W/m/K
thermal conductivity (332.35 K, 238 kPa, Liquid): 0.05149 ± 0.0011 W/m/K
thermal conductivity (332.35 K, 239 kPa, Liquid): 0.05131 ± 0.0011 W/m/K
thermal conductivity (332.38 K, 108 kPa, Liquid): 0.05165 ± 0.0011 W/m/K
thermal conductivity (332.39 K, 107 kPa, Liquid): 0.05161 ± 0.0011 W/m/K
thermal conductivity (332.47 K, 102 kPa, Gas): 0.01373 ± 0.00085 W/m/K
thermal conductivity (332.56 K, 71 kPa, Gas): 0.01389 ± 0.00086 W/m/K
thermal conductivity (332.59 K, 73 kPa, Gas): 0.01379 ± 0.00086 W/m/K
thermal conductivity (332.65 K, 28066 kPa, Liquid): 0.0639 ± 0.0013 W/m/K
thermal conductivity (332.66 K, 28069 kPa, Liquid): 0.06388 ± 0.0013 W/m/K
thermal conductivity (332.68 K, 3944 kPa, Liquid): 0.05341 ± 0.0011 W/m/K
thermal conductivity (332.68 K, 3949 kPa, Liquid): 0.05349 ± 0.0011 W/m/K
thermal conductivity (332.68 K, 69200 kPa, Liquid): 0.07562 ± 0.0015 W/m/K
thermal conductivity (332.69 K, 69200 kPa, Liquid): 0.07558 ± 0.0015 W/m/K
thermal conductivity (332.73 K, 20437 kPa, Liquid): 0.06118 ± 0.0013 W/m/K
thermal conductivity (332.73 K, 57710 kPa, Liquid): 0.07255 ± 0.0015 W/m/K
thermal conductivity (332.73 K, 57718 kPa, Liquid): 0.07251 ± 0.0015 W/m/K
thermal conductivity (332.74 K, 20439 kPa, Liquid): 0.06126 ± 0.0013 W/m/K
thermal conductivity (332.8 K, 45557 kPa, Liquid): 0.06917 ± 0.0014 W/m/K
thermal conductivity (332.81 K, 45558 kPa, Liquid): 0.06905 ± 0.0014 W/m/K
thermal conductivity (332.82 K, 14107 kPa, Liquid): 0.05846 ± 0.0012 W/m/K
thermal conductivity (332.83 K, 102 kPa, Gas): 0.01371 ± 0.00085 W/m/K
thermal conductivity (332.83 K, 14108 kPa, Liquid): 0.05829 ± 0.0012 W/m/K
thermal conductivity (332.85 K, 107 kPa, Gas): 0.01391 ± 0.00087 W/m/K
thermal conductivity (332.87 K, 36553 kPa, Liquid): 0.06645 ± 0.0014 W/m/K
thermal conductivity (332.87 K, 36556 kPa, Liquid): 0.06639 ± 0.0014 W/m/K
thermal conductivity (332.91 K, 8572 kPa, Liquid): 0.05573 ± 0.0011 W/m/K
thermal conductivity (332.91 K, 8573 kPa, Liquid): 0.05574 ± 0.0011 W/m/K
thermal conductivity (332.94 K, 70 kPa, Gas): 0.01377 ± 0.00085 W/m/K
thermal conductivity (332.97 K, 73 kPa, Gas): 0.01383 ± 0.00086 W/m/K
thermal conductivity (332.97 K, 230 kPa, Liquid): 0.05124 ± 0.0011 W/m/K
thermal conductivity (332.98 K, 237 kPa, Liquid): 0.05109 ± 0.0011 W/m/K
